From patent publication US11130752B2, “Aminopyrimidine compound” (Cardurion Pharmaceuticals, LLC, priority 2018, dated 2021)

Target: T1, human CaMKIIδ (Homo sapiens, UniProt Q13557)
T1 construct: Full-length, glutathione-S-transferase(GST)-tagged, human CaMKIIδ was purchased from Carna Biosciences; purchased Carna Biosciences (CaMKIIδ); Wako Pure Chemical Industries (calmodulin) 02-111
Test: In vitro CaMKII inhibitory activity (binding assay, TR-FRET)
Conditions: Table 4, GST-tagged human CaMKIIδ, activity ranks
Protocol: Evaluation of In Vitro CaMKII Inhibitory Activity (Binding Assay)
In vitro CaMKIIδ inhibitory activity was evaluated by a binding assay.
Full-length, glutathione-S-transferase(GST)-tagged, human CaMKIIδ was purchased from Carna Biosciences (product #02-111, Kobe, Japan). Full-length bovine calmodulin was purchased from Wako Pure Chemical Industries (Osaka, Japan). Terbium-labeled anti-GST antibody (Tb-anti-GST Ab) was purchased from Life Technologies (Carlsbad, Calif., USA). Boron-dipyrromethene (BODIPY)-labeled probe ligand was synthesized as described below.
Time-Resolved Fluorescence Resonance Energy Transfer (TR-FRET) Assay
All assays were conducted using 384-well, white, flat-bottomed plates (product #784075, Greiner Bio-One, Frickenhausen, Germany) in kinase assay buffer, which consists of 50 mM HEPES pH 7.6, 10 mM MgCl2, 1 mM EGTA, 0.01% Brig-35, 0.1 mM DTT). The fluorescent probe ligand was added at a final concentration of 300 nM to solutions containing 0.21 nM Tb-anti-GST Ab, 1 mM CaCl2, 10 μg/mL calmodulin, and 0.5 nM GST-tagged CaMKIIδ. After shaded incubation of the protein-probe mixture on ice for 30 min, the premix was dispensed in the assay plate including test inhibitors with 4 fold dilution series of eight concentrations. After 1 hr incubation at room temperature, TR-FRET signals were measured in duplicate using an EnVision microplate reader (Perkin Elmer, Waltham, Mass., USA). The solution in each well was excited with a laser (λ=340 nm) reflected by a dichroic mirror (D400/D505 (Perkin Elmer) through an excitation filter (UV (TRF) 340, (Perkin Elmer)), and fluorescence from Tb and BODIPY were detected through two emission filters (CFP 495 (Perkin Elmer) for Tb, Emission 520 (Perkin Elmer) for BODIPY).
The percentage of inhibition of test compounds was calculated according to equation (1) Inhibition(%)=100×(μH−T)/(μH−μL) (1)
Where T is the value of the wells containing test compounds and μH and μL are the mean values of the 0% and 100% inhibition control wells, respectively. The values of the 0 and 100% controls were the signals obtained in the absence and presence of 3 μM its parent compound, respectively. The half maximal inhibitory concentration (IC50) of test compounds was calculated by fitting the data with the logistic equation using XLfit (IDBS, Guildford, UK). The IC50 was classified according to the following activity ranks.

Structure (SMILES)	IC50
C[C@@H](Cn1cnnn1)Oc1cc(-c2cnc(Nc3cn([C@H]4CC[C@H](N5CCOCC5)CC4)nc3OCC3COC3)nc2)ccc1C#N [Example 492, 2-(((S)-1-(1H-tetrazol-1-yl)propan-2-yl)oxy)-4-(2-((1-((1r,4r)-4-morpholinocyclohexyl)-3-(oxetan-3-ylmethoxy)-1H-pyrazol-4-yl)amino)pyrimidin-5-yl)benzonitrile]	< 10 nM
C[C@@H](Cn1cnnn1)Oc1cc(-c2cnc(Nc3cn([C@H]4CC[C@H](N5CCOCC5)CC4)nc3OCCCC#N)nc2)ccc1Cl [Example 493, 4-((4-((5-(3-(((S)-1-(1H-tetrazol-1-yl)propan-2-yl)oxy)-4-chlorophenyl)pyrimidin-2-yl)amino)-1-((1r,4r)-4-morpholinocyclohexyl)-1H-pyrazol-3-yl)oxy)butanenitrile]	< 10 nM
C[C@@H](Cn1cnnn1)Oc1cc(-c2cnc(Nc3cn([C@H]4CC[C@H](N5CCOCC5)CC4)nc3OCCCC#N)nc2)ccc1C#N [Example 494, 2-(((S)-1-(1H-tetrazol-1-yl)propan-2-yl)oxy)-4-(2-((3-(3-cyanopropoxy)-1-((1r,4r)-4-morpholinocyclohexyl)-1H-pyrazol-4-yl)amino)pyrimidin-5-yl)benzonitrile]	< 10 nM
C[C@@H](Cn1cnnn1)Oc1cc(-c2cnc(Nc3cn([C@H]4CC[C@H](N5CCOCC5)CC4)nc3OCCC(C)(C)O)nc2)ccc1C#N [Example 495, 2-(((S)-1-(1H-tetrazol-1-yl)propan-2-yl)oxy)-4-(2-((3-(3-hydroxy-3-methylbutoxy)-1-((1r,4r)-4-morpholinocyclohexyl)-1H-pyrazol-4-yl)amino)pyrimidin-5-yl)benzonitrile]	< 10 nM
COC(C)(C)CCOc1nn([C@H]2CC[C@H](N3CCOCC3)CC2)cc1Nc1ncc(-c2ccc(C#N)c(O[C@@H](C)Cn3cnnn3)c2)cn1 [Example 496, 2-(((S)-1-(1H-tetrazol-1-yl)propan-2-yl)oxy)-4-(2-((3-(3-methoxy-3-methylbutoxy)-1-((1r,4r)-4-morpholinocyclohexyl)-1H-pyrazol-4-yl)amino)pyrimidin-5-yl)benzonitrile]	< 10 nM
C[C@@H](Cn1cnnn1)Oc1cc(-c2cnc(Nc3cn([C@H]4CC[C@H](N5CCOCC5)CC4)nc3OCC3CCOCC3)nc2)ccc1Cl [Example 497, 5-(3-(((S)-1-(1H-tetrazol-1-yl)propan-2-yl)oxy)-4-chlorophenyl)-N-(1-((1r,4r)-4-morpholinocyclohexyl)-3-((tetrahydro-2H-pyran-4-yl)methoxy)-1H-pyrazol-4-yl)pyrimidin-2-amine]	< 10 nM
C[C@@H](Cn1cnnn1)Oc1cc(-c2cnc(Nc3cn([C@H]4CC[C@H](N5CCOCC5)CC4)nc3OCC3CCOC3)nc2)ccc1Cl (stereo partly drawn) [Example 498, 5-(3-(((S)-1-(1H-tetrazol-1-yl)propan-2-yl)oxy)-4-chlorophenyl)-N-(1-((1r,4r)-4-morpholinocyclohexyl)-3-((tetrahydrofuran-3-yl)methoxy)-1H-pyrazol-4-yl)pyrimidin-2-amine]	< 10 nM
C[C@@H](Cn1cnnn1)Oc1cc(-c2cnc(Nc3cn([C@H]4CC[C@H](N5CCOCC5)CC4)nc3OCC3CCCOC3)nc2)ccc1Cl (stereo partly drawn) [Example 499, 5-(3-(((S)-1-(1H-tetrazol-1-yl)propan-2-yl)oxy)-4-chlorophenyl)-N-(1-((1r,4r)-4-morpholinocyclohexyl)-3-((tetrahydro-2H-pyran-3-yl)methoxy)-1H-pyrazol-4-yl)pyrimidin-2-amine]	< 10 nM
C[C@@H](Cn1cnnn1)Oc1cc(-c2cnc(Nc3cn([C@H]4CC[C@H](N5CCOCC5)CC4)nc3OCCC(C)(C)O)nc2)ccc1Cl [Example 500, 4-((4-((5-(3-(((S)-1-(1H-tetrazol-1-yl)propan-2-yl)oxy)-4-chlorophenyl)pyrimidin-2-yl)amino)-1-((1r,4r)-4-morpholinocyclohexyl)-1H-pyrazol-3-yl)oxy)-2-methylbutan-2-ol]	< 10 nM
C[C@@H](Cn1cnnn1)Oc1cc(-c2cnc(Nc3cn([C@H]4CC[C@H](N5CCOCC5)CC4)nc3OCc3cncs3)nc2)ccc1Cl [Example 501, 5-(3-(((S)-1-(1H-tetrazol-1-yl)propan-2-yl)oxy)-4-chlorophenyl)-N-(1-((1r,4r)-4-morpholinocyclohexyl)-3-(thiazol-5-ylmethoxy)-1H-pyrazol-4-yl)pyrimidin-2-amine]	< 10 nM
C[C@@H](Cn1cnnn1)Oc1cc(-c2cnc(Nc3cn([C@H]4CC[C@H](N5CCOCC5)CC4)nc3OCc3ccnn3C)nc2)ccc1Cl [Example 502, 5-(3-(((S)-1-(1H-tetrazol-1-yl)propan-2-yl)oxy)-4-chlorophenyl)-N-(3-((1-methyl-1H-pyrazol-5-yl)methoxy)-1-((1r,4r)-4-morpholinocyclohexyl)-1H-pyrazol-4-yl)pyrimidin-2-amine]	< 10 nM
C[C@@H](Cn1cnnn1)Oc1cc(-c2cnc(Nc3cn([C@H]4CC[C@H](N5CCOCC5)CC4)nc3OCc3ncco3)nc2)ccc1Cl [Example 503, 5-(3-(((S)-1-(1H-tetrazol-1-yl)propan-2-yl)oxy)-4-chlorophenyl)-N-(1-((1r,4r)-4-morpholinocyclohexyl)-3-(oxazol-2-ylmethoxy)-1H-pyrazol-4-yl)pyrimidin-2-amine]	< 10 nM
C[C@@H](Cn1cnnn1)Oc1cc(-c2cnc(Nc3cn([C@H]4CC[C@H](N5CCOCC5)CC4)nc3OCc3nccs3)nc2)ccc1Cl [Example 504, 5-(3-(((S)-1-(1H-tetrazol-1-yl)propan-2-yl)oxy)-4-chlorophenyl)-N-(1-((1r,4r)-4-morpholinocyclohexyl)-3-(thiazol-2-ylmethoxy)-1H-pyrazol-4-yl)pyrimidin-2-amine]	< 10 nM
C[C@@H](Cn1cnnn1)Oc1cc(-c2cnc(Nc3cn(C4CCC(N5CCOCC5)CC4)nc3OCc3ccnn3C)nc2)ccc1Cl (stereo partly drawn) [Example 505, 5-(3-(((S)-1-(1H-tetrazol-1-yl)propan-2-yl)oxy)-4-chlorophenyl)-N-(3-((1-methyl-1H-pyrazol-5-yl)methoxy)-1-((1r,4r)-4-morpholinocyclohexyl)-1H-pyrazol-4-yl)pyrimidin-2-amine]	< 10 nM
Cc1noc(C)c1COc1nn([C@H]2CC[C@H](N3CCOCC3)CC2)cc1Nc1ncc(-c2ccc(Cl)c(O[C@@H](C)Cn3cnnn3)c2)cn1 [Example 506, 5-(3-(((S)-1-(1H-tetrazol-1-yl)propan-2-yl)oxy)-4-chlorophenyl)-N-(3-((3,5-dimethylisoxazol-4-yl)methoxy)-1-((1r,4r)-4-morpholinocyclohexyl)-1H-pyrazol-4-yl)pyrimidin-2-amine]	< 10 nM
C[C@@H](Cn1cnnn1)Oc1cc(-c2cnc(Nc3cn([C@H]4CC[C@H](N5CCOCC5)CC4)nc3OCCn3ccnc3)nc2)ccc1Cl [Example 507, N-(3-(2-(1H-imidazol-1-yl)ethoxy)-1-((1r,4r)-4-morpholinocyclohexyl)-1H-pyrazol-4-yl)-5-(3-(((S)-1-(1H-tetrazol-1-yl)propan-2-yl)oxy)-4-chlorophenyl)pyrimidin-2-amine]	< 10 nM
C[C@@H](Cn1cnnn1)Oc1cc(-c2cnc(Nc3cn([C@H]4CC[C@H](N5CCOCC5)CC4)nc3OCCCn3cncn3)nc2)ccc1Cl [Example 508, N-(3-(3-(1H-1,2,4-triazol-1-yl)propoxy)-1-((1r,4r)-4-morpholinocyclohexyl)-1H-pyrazol-4-yl)-5-(3-(((S)-1-(1H-tetrazol-1-yl)propan-2-yl)oxy)-4-chlorophenyl)pyrimidin-2-amine]	< 10 nM
